# According to US6770738B1, “Higher order structure and binding of peptide nucleic acids” (ISIS Pharmaceuticals, Inc., priority 1992, dated 2004):
# Columns and labels:
# [1] = system: pT9CT9C plasmid linearized by CfrlOI; assay: Site-specific S1 nuclease digestion of plasmid with two PNA sites complexed with PNA; format: biochemical; conditions: 30 units S1 nuclease; target sites are for T5CT4
# Source text: was cloned into the Sal1 site of the pUC19 plasmid. This plasmid, which contained two binding sites for PNA H-T5CT4-LysNH2 (SEQ ID NO:6) separated by six base pairs, was designated pT9CT9C. Strand displacement in the two T5CT4 sites led to opening of the entire region, including the sequence GTCGAC/GACGAC, providing a substrate for the S1 nuclease in both strands. As control, a pT9C-5 plasmid was used, which carried only one T5CT4 (SEQ ID NO:6) insert cloned into the SalI site of the pUC19 plasmid.
# cloned in the Sal1 site of the pUC19 polylinker. The pT9C-5 plasmid carried the single insert A5GA4/CT5 (SEQ ID NO:4) cloned in the same site. The PNA-DNA complexes were prepared as described in Example 2 with the only difference being the duration of the incubation was 2 hours. Digestion by 30 units of the S1 nuclease was performed in the same buffer as described in Example 2 with two exceptions, lanes 2 and 4. In lane 2, 15 units of the enzyme were used, whereas in lane 4 200 mM NaCl and 1 mM of ZnSO4 were added to the buffer. Lane 1: the reference band obtained by digestion with the BamHI restriction enzyme of the pUC 19 plasmid linearized by the CfrlOI restriction enzyme. Lanes 2-4 site-specific digestion by the S1 nuclease of the linearized pT9C plasmid complexed with PNA H-T5CT4-LysNH2 (SEQ ID NO:6). Lanes 5-7: various controls. Lane 8: the same experiment as in lane 3, but using PNA T10 (SEQ ID NO:2) instead of T4CT5 (SEQ ID NO:8). Lane 9: the same experiment as in lane 3, but using PNA T2CT2CT4 (SEQ ID NO:1) instead of T4CT5 (SEQ ID NO:8). Lane 10: the same experiment as in lane 3, but using the pT9C-5 plasmid instead of the pT9C. In the header PNA T5CT4 (SEQ ID NO:6) is labelled as 1, T10 (SEQ ID NO:2) as 2 and T2CT2CT4 (SEQ ID NO:1) as 3.
# The bands observed by gel electrophoresis have the same position and width as the band created by the BamHI restriction enzyme. […] Moreover, under the much milder S1 nuclease treatment necessary to generate the data for the pT9CT9C, the yield of double-stranded breaks in the pT9C-5 plasmid was extremely low (lane 10).
# [2] = system: A98/T98 insert of pA98 plasmid; assay: Electron microscopy of PNA-DNA complex; format: binding
# Description: A pA98 plasmid containing an A98/T98 (SEQ ID NO:42) insert in the PstI site of the polylinker of a pUC 19 plasmid was used. 0.1 μg of the pA98 plasmid linearized by the Cfr1OI I restriction enzyme was incubated with 0.15 μg of PNA H-T10-LysNH2 (SEQ ID NO:2) at 37 °C. for 3 hours in 10 μL of the TE buffer (10 mM of Tris-HCl, 1 mM of Na3EDTA, pH 8.0). The complex was diluted with buffer containing 10 mM of Tris-HCl, 10 mM of NaCl, pH 7.5 to the final DNA concentration of 0.2-0.5 μg/mL and absorbed to the surface of glow discharged in tripropylamine carbon grid for 2 minutes as described in Duochet, J., Ultrastruct. Res., 1971 35, 147-167. The grid was stained in 0.1-0.5 % water solution of uranyl acetate for 10-15 sec and dried. The sample was shadowed with Pt/C (95/5) and studied in a Philips 400 electron microscope at accelerating voltage of 40 kV. The length of the DNA molecules were measured and a histogram was plotted as described by A. V. Kurakin in Micron Microscopica Acta, 22,213-221 (1991). The length of unwound region was measured by its thicker strand, for which the number of base pairs per unit length was assumed to be the same as for the DNA duplex. For analysis by use of a histogram, the molecules were oriented in such a manner that the left boundary of the loop was closer to the end of the molecule.
# [3] = system: pA98 plasmid relaxed circles (rcDNA); assay: Unwinding of closed circular DNA with PNA; format: binding
# Description: Relaxed circular DNA was prepared by treating ordinary supercoiled plasmid DNA with an extract containing DNA topoisomerase I, as described by V. I. Lyamichev, et. al., J. Biomolec. Struct. Dynamics, 3, 327-338 (1985). DNA-PNA complexes were obtained by incubation of 1-2 μg of DNA in 5-20 μL TE with 0.4 optical units./mL of PNA for 4 hours at 20-22° C. This corresponded to about 10 times molar excess of PNA to its potential binding sites. Agarose (1.5%) gel electrophoresis was performed in the TAE buffer containing 1 μg/mL of chloroquine at 10° C. for 15 hours at 1.5 V/cm. Tw—dimensional gel electrophoresis was preformed in the first direction (from top to bottom) in the TAE buffer and in the second direction (from left to right) in the same buffer with addition of 1 μg/mL of chloroquine.
# In this example, the efficiency of PNA T10 incorporating into the DNA duplex and displacing the DNA T-strand in solution was shown by unwinding of closed circular DNA by PNA. The pA98 plasaid (Example 16) was prepared in the form of relaxed circles (rcDNA). It was expected that complexing with PHA would unwind about 10 turns of the DNA duplex. Because of topological constraints (the two strands in rcDNA were closed and therefore topologically linked), this unwinding would make the rcDNA molecules behave as if they were positively supercoiled by 10 superturns. […]
substance,measurement,setting,value
H-T10LysNH2 [PNA H-T10-LysNH2],S1 nuclease digestion of pT9CT9C plasmid complexed with PNA,[1],very weak digestion
same,strand displacement loop at full occupancy of the target,[2],90-100 bases
same,average size of the loop,[2]; standard error 17 bp,114 bp
same,salt concentration tolerated by complex formed at low salt,[3]; NaCl,at least 500 mM
same,turns of the double helix released upon binding of PNA,"[3]; TE buffer, two-dimensional gel electrophoresis",8-10 turns
